In PubChem BioAssay (NCI):
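48-hour exposure; five concentrations; linearly interpolated endpoints. TGI marks complete inhibition of growth.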

Legend:
Test in all cases: NCI tumour cell line growth inhibition, 48 h
[1] = test system: SN12C renal
[2] = test system: MALME-3M melanoma
[3] = test system: TK-10 renal
[4] = test system: SR leukemia
[5] = test system: XF 498 CNS
[6] = test system: SF-295 CNS
[7] = test system: COLO 205 colon
[8] = test system: NCI-H226 lung
[9] = test system: HCT-116 colon
[10] = test system: NCI-H522 lung
[11] = test system: IGROV1 ovarian
[12] = test system: NCI-H23 lung
[13] = test system: HOP-62 NSCLC
[14] = test system: A498 renal
[15] = test system: HCT-15 colon
[16] = test system: A549 NSCLC
[17] = test system: LOX IMVI melanoma
[18] = test system: SNB-75 CNS
[19] = test system: SF-268 CNS
[20] = test system: HT29 colon
[21] = test system: SW-620 colon
[22] = test system: LXFL 529 NSCLC
[23] = test system: MOLT-4 leukemia
[24] = test system: RPMI-8226 leukemia
[25] = test system: EKVX NSCLC
[26] = test system: DMS 273 small cell lung
[27] = test system: HL-60(TB) leukemia
[28] = test system: DLD-1 colon
[29] = test system: SF-539 CNS
[30] = test system: CAKI-1 renal
[31] = test system: SK-MEL-2 melanoma
[32] = test system: CCRF-CEM leukemia
[33] = test system: KM20L2 colon
[34] = test system: OVCAR-8 ovarian
[35] = test system: KM12 colon
[36] = test system: ACHN renal
[37] = test system: UACC-62 melanoma
[38] = test system: HCC-2998 colon
[39] = test system: K-562 leukemia
[40] = test system: UO-31 renal
[41] = test system: RXF 393 renal
[42] = test system: M14 melanoma
[43] = test system: SK-MEL-5 melanoma
[44] = test system: OVCAR-4 ovarian
[45] = test system: NCI-H460 lung
[46] = test system: 786-0 renal
[47] = test system: UACC-257 melanoma
[48] = test system: DMS 114 small cell lung
[49] = test system: OVCAR-3 ovarian
[50] = test system: SK-OV-3 ovarian
[51] = test system: P388/ADR leukemia
[52] = test system: P388 leukemia
[53] = test system: MCF7 breast
[54] = test system: HOP-18 NSCLC
[55] = test system: M19-MEL melanoma
[56] = test system: SN12K1 renal
[57] = test system: HOP-92 NSCLC
[58] = test system: NCI/ADR-RES ovarian
[59] = test system: SNB-78 CNS
[60] = test system: OVCAR-5 ovarian
[61] = test system: U251 CNS
[62] = test system: SNB-19 CNS
[63] = test system: SK-MEL-28 melanoma

Structure (SMILES): C=C1CC(CC)(CCN2C(=O)c3ccccc3C2=O)OC1=O (stereo not drawn)
- TGI [1]: 45.5 µM
- TGI [2]: 27.3 µM
- TGI [3]: 32.3 µM
- TGI [4]: > 100 µM
- TGI [5]: 27.1 µM
- TGI [6]: > 100 µM
- TGI [7]: 30.3 µM
- TGI [8]: 40.6 µM
- TGI [9]: 25.4 µM
- TGI [10]: 11.8 µM
- TGI [11]: > 100 µM
- TGI [12]: 29.9 µM
- TGI [13]: > 100 µM
- TGI [14]: 36.8 µM
- TGI [15]: 31.6 µM
- TGI [16]: > 100 µM
- TGI [17]: 29.6 µM
- TGI [18]: > 100 µM
- TGI [19]: 21.4 µM
- TGI [20]: 37.3 µM
- TGI [21]: 22.9 µM
- TGI [22]: 27.1 µM
- TGI [23]: > 100 µM
- TGI [24]: > 100 µM
- TGI [25]: 31.1 µM
- TGI [26]: 24.6 µM
- TGI [27]: > 100 µM
- TGI [28]: 80.7 µM
- TGI [29]: 46.6 µM
- TGI [30]: 7.59 µM
- TGI [31]: 29.2 µM
- TGI [32]: > 100 µM
- TGI [33]: 46.1 µM
- TGI [34]: 36.2 µM
- TGI [35]: 45.1 µM
- TGI [36]: 28.6 µM
- TGI [37]: 26.3 µM
- TGI [38]: 32.1 µM
- TGI [39]: > 100 µM
- TGI [40]: 36.2 µM
- TGI [41]: 29.9 µM
- TGI [42]: 22.8 µM
- TGI [43]: 26.1 µM
- TGI [44]: 27.8 µM
- TGI [45]: > 100 µM
- TGI [46]: 24.2 µM
- TGI [47]: 27 µM
- TGI [48]: 43 µM

Structure (SMILES): C#CC[C@@]12CC(=O)C[C@@H]1CCC1(C2)OCCO1 (tested in a mixture with another compound)
- TGI [1]: > 100 µM
- TGI [2]: > 100 µM
- TGI [49]: > 100 µM
- TGI [50]: > 100 µM
- TGI [51]: > 75 µM
- TGI [5]: > 100 µM
- TGI [6]: > 100 µM
- TGI [7]: > 100 µM
- TGI [8]: > 100 µM
- TGI [9]: > 100 µM
- TGI [10]: > 100 µM
- TGI [11]: > 100 µM
- TGI [52]: > 59.7 µM
- TGI [12]: > 100 µM
- TGI [13]: > 100 µM
- TGI [14]: > 100 µM
- TGI [15]: > 100 µM
- TGI [16]: > 100 µM
- TGI [17]: > 100 µM
- TGI [18]: > 100 µM
- TGI [19]: > 100 µM
- TGI [20]: > 100 µM
- TGI [21]: > 100 µM
- TGI [23]: > 100 µM
- TGI [53]: > 100 µM
- TGI [54]: > 100 µM
- TGI [24]: > 100 µM
- TGI [55]: > 100 µM
- TGI [25]: > 100 µM
- TGI [26]: > 100 µM
- TGI [27]: > 100 µM
- TGI [28]: > 100 µM
- TGI [29]: > 100 µM
- TGI [56]: > 100 µM
- TGI [31]: > 100 µM
- TGI [32]: > 100 µM
- TGI [33]: > 100 µM
- TGI [34]: > 100 µM
- TGI [57]: > 100 µM
- TGI [58]: > 100 µM
- TGI [35]: > 100 µM
- TGI [37]: > 100 µM
- TGI [38]: > 100 µM
- TGI [39]: > 100 µM
- TGI [40]: > 100 µM
- TGI [41]: > 100 µM
- TGI [59]: > 100 µM
- TGI [43]: > 100 µM
- TGI [60]: > 100 µM
- TGI [61]: > 100 µM
- TGI [44]: > 100 µM
- TGI [45]: > 100 µM
- TGI [62]: > 100 µM
- TGI [47]: > 100 µM
- TGI [63]: > 100 µM
